The values that follow come from patent US12064426B2, “Selective inhibitors of ROCK1 and ROCK2 protein kinases and uses thereof” (GENOSCO Inc., priority 2021, dated 2024).

Some results are limits rather than exact numbers.

The IC50 is the concentration that inhibits the measured activity by half.

Assay [1] deals with T1, Recombinant ROCK1 (amino acids 1-477) (Homo sapiens, UniProt Q13464).
T1 construct: Recombinant ROCK1 (amino acids 1-477); by word order, ROCK1 from Carna Biosciences
Kind of assay: ROCK inhibition assay, LANCE Ultra TR-FRET kinase assay (ROCK1). Format: biochemical. The settings on record: 1 μM ATP, 50 nM ULight-CREBtide substrate. The method, boiled down: (§1)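 Reaction buffer 50 mM HEPES pH 7.5, 10 mM MgCl2, 1 mM EGTA, 2 mM DTT; kinase, ULight-CREBtide (50 nM) and ATP (ROCK1 1 μM, ROCK2 4 μM) react 1 h at room temperature. Phospho-Ser133 detected by europium antibody after 10 mM EDTA stop, TR-FRET ex 320 nm; IC50 calculated.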
In general terms: TR-FRET usually uses a lanthanide donor and a delayed reading to cut background.

Assay [2] addresses T2, Recombinant ROCK2 (amino acids 5-554) (Homo sapiens, UniProt O75116).
T2 construct: ROCK2 (amino acids 5-554); by word order, ROCK2 from SignalChem
The experiment in a line: ROCK inhibition assay, LANCE Ultra TR-FRET kinase assay (ROCK2). Conditions: 4 μM ATP, 50 nM ULight-CREBtide substrate. Format: biochemical. An outline of the steps:
as §1

T2 sequence (O75116 5-554): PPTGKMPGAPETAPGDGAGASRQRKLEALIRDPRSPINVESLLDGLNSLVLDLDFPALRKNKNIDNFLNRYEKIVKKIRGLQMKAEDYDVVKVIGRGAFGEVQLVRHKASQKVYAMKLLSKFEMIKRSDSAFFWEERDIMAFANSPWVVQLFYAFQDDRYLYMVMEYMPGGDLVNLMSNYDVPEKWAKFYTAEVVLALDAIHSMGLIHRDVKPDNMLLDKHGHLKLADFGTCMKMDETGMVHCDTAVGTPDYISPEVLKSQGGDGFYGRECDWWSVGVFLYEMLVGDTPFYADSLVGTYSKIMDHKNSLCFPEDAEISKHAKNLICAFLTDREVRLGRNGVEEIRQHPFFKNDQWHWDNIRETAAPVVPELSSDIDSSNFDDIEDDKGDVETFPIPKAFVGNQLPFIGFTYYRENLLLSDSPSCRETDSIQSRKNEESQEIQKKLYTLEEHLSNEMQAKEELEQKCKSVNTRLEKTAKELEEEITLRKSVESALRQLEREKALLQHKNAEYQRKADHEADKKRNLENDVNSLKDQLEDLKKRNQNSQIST
T1 sequence (Q13464 1-477): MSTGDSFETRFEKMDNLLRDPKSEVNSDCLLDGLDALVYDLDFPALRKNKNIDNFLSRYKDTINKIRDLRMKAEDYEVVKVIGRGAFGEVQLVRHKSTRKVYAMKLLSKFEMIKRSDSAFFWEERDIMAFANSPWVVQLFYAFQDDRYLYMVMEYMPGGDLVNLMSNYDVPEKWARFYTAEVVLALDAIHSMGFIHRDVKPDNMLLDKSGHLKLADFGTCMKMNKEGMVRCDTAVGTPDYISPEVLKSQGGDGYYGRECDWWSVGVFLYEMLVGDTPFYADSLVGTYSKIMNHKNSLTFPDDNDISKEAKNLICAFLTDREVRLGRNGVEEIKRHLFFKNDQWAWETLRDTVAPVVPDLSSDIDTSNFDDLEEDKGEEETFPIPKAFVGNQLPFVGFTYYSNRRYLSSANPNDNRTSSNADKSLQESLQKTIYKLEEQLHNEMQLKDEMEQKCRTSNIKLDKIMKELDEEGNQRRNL

Consider `Cc1nocc1-c1ccc2c(=O)n([C@H](C)c3cccc(C(=O)NCCN4CCOCC4)c3)cnc2c1` [Compound 474], for which the values for the IC50 in assay [1] and in assay [2] were 11 to 100 nM and < 10 nM, respectively.

Regarding `Cc1nocc1-c1ccc2c(=O)n([C@H](C)c3cccc(C(=O)NCC(F)(F)F)c3)cnc2c1` [Compound 475], the IC50 in assay [1] was 11 to 100 nM; in assay [2], < 10 nM.

For the molecule `CNC(=O)c1cccc([C@@H](C)n2cnc3cc(-c4ccnn4C)ccc3c2=O)c1` [Compound 476], the half-inhibitory concentration (IC50) was 11 to 100 nM in assay [1] and < 10 nM in assay [2].

As for `[2H]C([2H])([2H])NC(=O)c1cccc([C@@H](C)n2cnc3cc(-c4ccnn4C)ccc3c2=O)c1` [Compound 477], the IC50 in assay [1] is 11 to 100 nM; in assay [2], < 10 nM.

On to `C[C@H](c1cccc(C(=O)N[C@H]2C[C@@H](O)C2)c1)n1cnc2cc(-c3ccnn3C)ccc2c1=O` [Compound 478], for which the figures for the IC50 in assay [1] and in assay [2] were 11 to 100 nM and < 10 nM, respectively.

With `C[C@H](c1cccc(C(=O)NCC2COC2)c1)n1cnc2cc(-c3ccnn3C)ccc2c1=O` [Compound 479], the 50% inhibitory concentration (IC50) in assay [1] was 11 to 100 nM; in assay [2], < 10 nM.

For the molecule `C[C@H](c1cccc(C(=O)NCCO)c1)n1cnc2cc(-c3ccnn3C)ccc2c1=O` [Compound 480], the half-maximal inhibitory concentration (IC50) in assay [1] lay within 101 to 500 nM; in assay [2] it was 10 to 100 nM.

For `CNC(=O)c1cccc([C@@H](C)n2cnc3cc(-c4ccnc(N)c4)ccc3c2=O)c1` [Compound 481], the results for the IC50 in assay [1] and in assay [2] were 101 to 500 nM and 10 to 100 nM, respectively.

Turning to `C[C@H](c1cccc(C(=O)N(C)C)c1)n1cnc2cc(-c3ccnc(N)c3)ccc2c1=O` [Compound 482], the IC50 in assay [1] was > 501 nM; in assay [2] it was > 500 nM.

As for `O=c1c2ccc(-c3ccncc3)cc2ncn1C(CO)c1cccc(Cl)c1` (centres unmarked) [Compound 483, 3-(1-(3-chlorophenyl)-2-hydroxyethyl)-7-(pyridin-4-yl)quinazolin-4(3H)-one], the figures for the IC50 in assay [1] and in assay [2] were 101 to 500 nM and 10 to 100 nM, respectively.

As for `Nc1cc(-c2ccc3c(=O)n(C(CO)c4cccc(Cl)c4)cnc3c2)ccn1` (centres unmarked) [Compound 484], the concentration for half-maximal inhibition (IC50) in assay [1] is 101 to 500 nM; in assay [2], 10 to 100 nM.

Turning to `Cc1[nH]ncc1-c1ccc2c(=O)n(C(CO)c3cccc(Cl)c3)cnc2c1` (centres unmarked) [Compound 485], the concentration for half-maximal inhibition (IC50) in assay [1] fell in the range of 11 to 100 nM; in assay [2] it was 10 to 100 nM.

For `O=c1c2ccc(-c3cn[nH]c3Cl)cc2ncn1C(CO)c1cccc(Cl)c1` (centres unmarked) [Compound 487], the IC50 fell in the range of 11 to 100 nM in assay [1] and 10 to 100 nM in assay [2].

Consider `Cc1nocc1-c1ccc2c(=O)n(C(CO)c3cccc(Cl)c3)cnc2c1` (centres unmarked) [Compound 488], for which the IC50 in assay [1] lay in the range of 101 to 500 nM; in assay [2], 10 to 100 nM.

On to `COc1cccc(C(CO)n2cnc3cc(-c4cn[nH]c4C)ccc3c2=O)c1` (centres unmarked) [Compound 489], for which the figures for the IC50 in assay [1] and in assay [2] were 11 to 100 nM and 10 to 100 nM, respectively.

Turning to `COc1cccc(C(CO)n2cnc3cc(-c4cn[nH]c4C(F)(F)F)ccc3c2=O)c1` (centres unmarked) [Compound 490], the IC50 in assay [1] fell in the range of 11 to 100 nM; in assay [2], 10 to 100 nM.

Regarding `COc1cccc(C(CO)n2cnc3cc(-c4cn[nH]c4Cl)ccc3c2=O)c1` (centres unmarked) [Compound 491], the IC50 in assay [1] fell in the range of 11 to 100 nM; in assay [2], 10 to 100 nM.

Take `NCC(c1cccc(Cl)c1)n1cnc2cc(-c3ccnc(F)c3)ccc2c1=O` (centres unmarked) [Compound 492, 3-(2-amino-1-(3-chlorophenyl)ethyl)-7-(2-fluoropyridin-4-yl)quinazolin-4(3H)-one]: the IC50 was in the range of 11 to 100 nM in assay [1] and 10 to 100 nM in assay [2].

Turning to `NCC(c1cccc(Cl)c1)n1cnc2cc(-c3ccnc(N)c3)ccc2c1=O` (centres unmarked) [Compound 493], the 50% inhibitory concentration (IC50) was 11 to 100 nM in assay [1] and < 10 nM in assay [2].

For `Cc1[nH]ncc1-c1ccc2c(=O)n(C(CN)c3cccc(Cl)c3)cnc2c1` (centres unmarked) [Compound 494], the IC50 in assay [1] and in assay [2] was < 10 nM throughout.

`NCC(c1cccc(Cl)c1)n1cnc2cc(-c3cn[nH]c3Cl)ccc2c1=O` (centres unmarked) [Compound 496]: the IC50 in assay [1] and in assay [2] was < 10 nM throughout.

Consider `Cc1nocc1-c1ccc2c(=O)n(C(CN)c3cccc(Cl)c3)cnc2c1` (centres unmarked) [Compound 497], for which the half-maximal inhibitory concentration (IC50) in assay [1] was 11 to 100 nM; in assay [2], < 10 nM.

Turning to `COc1cccc(C(CN)n2cnc3cc(-c4cn[nH]c4C)ccc3c2=O)c1` (centres unmarked) [Compound 498], the IC50 in assay [1] and in assay [2] was < 10 nM in each case.

Turning to `COc1cccc(C(CN)n2cnc3cc(-c4cn[nH]c4C(F)(F)F)ccc3c2=O)c1` (centres unmarked) [Compound 499], the IC50 in assay [1] and in assay [2] was < 10 nM in each case.

Regarding `COc1cccc(C(CN)n2cnc3cc(-c4cn[nH]c4Cl)ccc3c2=O)c1` (centres unmarked) [Compound 500], the IC50 in assay [1] and in assay [2] was < 10 nM throughout.

`N#Cc1cccc(C(CN)n2cnc3cc(-c4ccnc(N)c4)ccc3c2=O)c1` (centres unmarked) [Compound 501]: the figures for the half-maximal inhibitory concentration (IC50) in assay [1] and in assay [2] were > 501 nM and 100 to 500 nM, respectively.

Take `N#Cc1cccc(C(CN)n2cnc3cc(-c4ccnc(F)c4)ccc3c2=O)c1` (centres unmarked) [Compound 502, 3-(2-amino-1-(7-(2-fluoropyridin-4-yl)-4-oxoquinazolin-3(4H)-yl)ethyl)benzonitrile]: the 50% inhibitory concentration (IC50) in assay [1] is > 501 nM; in assay [2] it was 100 to 500 nM.

Take `N#Cc1cccc(C(CN)n2cnc3cc(-c4cn[nH]c4C(F)(F)F)ccc3c2=O)c1` (centres unmarked) [Compound 503]: the results for the IC50 in assay [1] and in assay [2] were > 501 nM and 100 to 500 nM, respectively.

Regarding `N#Cc1cccc(C(CN)n2cnc3cc(-c4cn[nH]c4Cl)ccc3c2=O)c1` (centres unmarked) [Compound 504], the IC50 in assay [1] is > 501 nM; in assay [2], 100 to 500 nM.

Consider `NCC(c1cccc(C(N)=O)c1)n1cnc2cc(-c3ccnc(N)c3)ccc2c1=O` (centres unmarked) [Compound 506], for which the IC50 in assay [1] was > 501 nM; in assay [2], 100 to 500 nM.

As for `NCC(c1cccc(C(N)=O)c1)n1cnc2cc(-c3cn[nH]c3C(F)(F)F)ccc2c1=O` (centres unmarked) [Compound 507], the IC50 is > 501 nM in assay [1] and 100 to 500 nM in assay [2].

As to `NCC(c1cccc(C(N)=O)c1)n1cnc2cc(-c3cn[nH]c3Cl)ccc2c1=O` (centres unmarked) [Compound 508], the half-inhibitory concentration (IC50) in assay [1] is > 501 nM; in assay [2] it was 100 to 500 nM.

With `CNC(=O)c1cccc([C@@H](C)n2cnc3cc(-c4cn[nH]c4Br)ccc3c2=O)c1` [Compound 509, (R)-3-(1-(7-(5-bromo-1H-pyrazol-4-yl)-4-oxoquinazolin-3(4H)-yl)ethyl)-N-methylbenzamide], the concentration for half-maximal inhibition (IC50) in assay [1] is 11 to 100 nM; in assay [2], < 10 nM.

As to `[2H]C([2H])([2H])NC(=O)c1cccc(Cn2cnc3cc(-c4cn[nH]c4Br)ccc3c2=O)c1` [Compound 511], the 50% inhibitory concentration (IC50) was 11 to 100 nM in assay [1] and < 10 nM in assay [2].

Regarding `CNC(=O)c1cccc(Cn2ccc3cc(-c4cn[nH]c4Br)ccc3c2=O)c1` [Compound 512], the half-maximal inhibitory concentration (IC50) in assay [1] was 11 to 100 nM; in assay [2], < 10 nM.

As for `[2H]C([2H])([2H])NC(=O)c1cccc(Cn2ccc3cc(-c4cn[nH]c4Br)ccc3c2=O)c1` [Compound 513], the results for the IC50 in assay [1] and in assay [2] were 11 to 100 nM and < 10 nM, respectively.

As for `C[C@H](c1cccc(C(=O)NC2COC2)c1)n1cnc2cc(-c3cn[nH]c3Br)ccc2c1=O` [Compound 514], the half-maximal inhibitory concentration (IC50) in assay [1] was 11 to 100 nM; in assay [2], < 10 nM.

`C[C@H](c1cccc(C(=O)NC2CC2)c1)n1cnc2cc(-c3cn[nH]c3Br)ccc2c1=O` [Compound 515]: the figures for the half-inhibitory concentration (IC50) in assay [1] and in assay [2] were 11 to 100 nM and < 10 nM, respectively.

On to `C[C@H](c1cccc(C(=O)NCc2ccc(F)nc2)c1)n1cnc2cc(-c3cn[nH]c3Br)ccc2c1=O` [Compound 516], for which the 50% inhibitory concentration (IC50) in assay [1] and in assay [2] was < 10 nM each time.

For `C[C@H](c1cccc(C(=O)Nc2ccc(F)cc2)c1)n1cnc2cc(-c3cn[nH]c3Br)ccc2c1=O` [Compound 517], the values for the IC50 in assay [1] and in assay [2] were 11 to 100 nM and < 10 nM, respectively.

With `CNC(=O)c1cccc([C@@H](C)n2cnc3cc(-c4cn[nH]c4N)ccc3c2=O)c1` [Compound 518], the half-inhibitory concentration (IC50) is 11 to 100 nM in assay [1] and < 10 nM in assay [2].

Turning to `[2H]C([2H])([2H])NC(=O)c1cccc([C@@H](C)n2cnc3cc(-c4cn[nH]c4N)ccc3c2=O)c1` [Compound 519], the results for the IC50 in assay [1] and in assay [2] were 11 to 100 nM and < 10 nM, respectively.

As for `C[C@H](c1cccc(C(=O)NC2COC2)c1)n1cnc2cc(-c3cn[nH]c3N)ccc2c1=O` [Compound 520], the IC50 was 11 to 100 nM in assay [1] and < 10 nM in assay [2].

Regarding `C[C@H](c1cccc(C(=O)NC2CC2)c1)n1cnc2cc(-c3cn[nH]c3N)ccc2c1=O` [Compound 521], the figures for the IC50 in assay [1] and in assay [2] were 11 to 100 nM and < 10 nM, respectively.

On to `C[C@H](c1cccc(C(=O)NCc2ccc(F)nc2)c1)n1cnc2cc(-c3cn[nH]c3N)ccc2c1=O` [Compound 522], for which the half-inhibitory concentration (IC50) in assay [1] and in assay [2] was < 10 nM in each case.

With `Cc1[nH]ncc1-c1ccc2c(c1)NCN([C@H](CO)c1cccc(Cl)c1)C2=O` [Compound 523, (S)-3-(1-(3-chlorophenyl)-2-hydroxyethyl)-7-(5-methyl-1H-pyrazol-4-yl)-2,3-dihydroquinazolin-4(1H)-one], the results for the IC50 in assay [1] and in assay [2] were > 501 nM and 100 to 500 nM, respectively.

For the molecule `O=C1c2ccc(-c3cn[nH]c3C(F)(F)F)cc2NCN1[C@H](CO)c1cccc(Cl)c1` [Compound 524], the half-maximal inhibitory concentration (IC50) in assay [1] was > 501 nM; in assay [2] it was 100 to 500 nM.

With `O=C1c2ccc(-c3cn[nH]c3Cl)cc2NCN1[C@H](CO)c1cccc(Cl)c1` [Compound 525], the IC50 in assay [1] was > 501 nM; in assay [2], 100 to 500 nM.

On to `Cn1nccc1-c1ccc2c(c1)NCN([C@H](CO)c1cccc(Cl)c1)C2=O` [Compound 526], for which the figures for the half-maximal inhibitory concentration (IC50) in assay [1] and in assay [2] were > 501 nM and > 500 nM, respectively.
